Measurements taken from US8729089B2 (Gilead Sciences, Inc., priority 2006, dated 2014).

What was measured:
[1] = test system: HCV replicon in human hepatoma Huh-7 cell line; test: Anti-HCV replicon assay (EC50, luciferase); format: cell-based; conditions: Hepatitis C virus, Huh-7, 72 h
Summary of the method: (§1)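 Huh-7 cells carrying an HCV replicon (6000/well) exposed to 3-fold serial compound dilutions for 3 days at 37 °C, final DMSO 0.5% where used. EC50 read as replicon luciferase luminescence after cell lysis; CC50 from CellTiter-Glo luminescence after 10 min at room temperature.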

[2] = CC50 assay (CellTiter-Glo) in Huh-7 HCV replicon cells; format: cell-based, human; conditions: human, 3 days incubation, CellTiter-Glo readout
Summary of the method: as §1

## NS(=O)(=O)c1ccc(CNc2nc(NCC(F)(F)F)c3nc(-n4ccnc4)ccc3n2)cc1 [Example 286, 4-{[6-Imidazol-1-yl-4-(2,2,2-trifluoro-ethylamino)-pyrido[3,2-d]pyrimidin-2-ylamino]-methyl}-benzenesulfonamide]
[1]
  EC50: < 0.1 µM
[2]
  CC50 at 3 days: 5 to 25 µM

## CN(CCS(C)(=O)=O)c1nc(NCc2ccc(F)cc2)nc2ccc(-c3ccc(NC(=O)C(C)(C)N)cc3)nc12 [Example 280, 2-Amino-N-(4-{2-(4-fluoro-benzylamino)-4-[(2-methanesulfonyl-ethyl)-methyl-amino]-pyrido[3,2-d]pyrimidin-6-yl}-phenyl)-2-methyl-propionamide]
[1]
  EC50: < 0.1 µM
[2]
  CC50 at 3 days: 5 to 25 µM

## CCOc1nc(NCc2ccc(F)cc2)nc2ccc(-c3cnc(N)cn3)nc12 [Example 62, [6-(5-Amino-pyrazin-2-yl)-4-ethoxy-pyrido[3,2-d]pyrimidin-2-yl]-(4-fluoro-benzyl)-amine]
[1]
  EC50: < 0.1 µM
[2]
  CC50 at 3 days: > 25 µM

## NS(=O)(=O)c1cc(-c2ccc3nc(NCc4ccc(F)cc4)nc(NCC(F)(F)F)c3n2)ccc1F [Example 224, 2-Fluoro-5-[2-(4-fluoro-benzylamino)-4-(2,2,2-trifluoro-ethylamino)-pyrido[3,2-d]pyrimidin-6-yl]-benzenesulfonamide]
[1]
  EC50: < 0.1 µM
[2]
  CC50 at 3 days: > 25 µM

## NS(=O)(=O)c1ccc(CNc2nc(NCC(F)(F)F)c3nc(-c4ccc(F)c(S(N)(=O)=O)c4)ccc3n2)cc1 [Example 225, 2-Fluoro-5-[2-(4-sulfamoyl-benzylamino)-4-(2,2,2-trifluoro-ethylamino)-pyrido[3,2-d]pyrimidin-6-yl]-benzenesulfonamide]
[1]
  EC50: < 0.1 µM
[2]
  CC50 at 3 days: > 25 µM

## CCOc1nc(NCc2ccc(C(=O)N(C)C)cc2)nc2ccc(-c3ccc(F)cc3)nc12 [Example 262, 4-{[4-Ethoxy-6-(4-fluoro-phenyl)-pyrido[3,2-d]pyrimidin-2-ylamino]-methyl}-N,N-dimethyl-benzamide]
[1]
  EC50: < 0.1 µM
[2]
  CC50 at 3 days: > 25 µM

## NS(=O)(=O)c1cccc(CNc2nc(NCC(F)(F)F)c3nc(-c4ccc(F)cc4)ccc3n2)c1 [Example 238, 3-{[6-(4-Fluoro-phenyl)-4-(2,2,2-trifluoro-ethylamino)-pyrido[3,2-d]pyrimidin-2-ylamino]-methyl}-benzenesulfonamide]
[1]
  EC50: < 0.1 µM
[2]
  CC50 at 3 days: < 5 µM

## CCOc1nc(NCc2ccc(F)cc2)nc2ccc(-c3ccc(NC(=O)C4(O)CC4)cc3)nc12 [Example 101, 1-Hydroxy-cyclopropanecarboxylic acid {4-[4-ethoxy-2-(4-fluoro-benzylamino)-pyrido[3,2-d]pyrimidin-6-yl]-phenyl}-amide]
[1]
  EC50: < 0.1 µM
[2]
  CC50 at 3 days: 5 to 25 µM

## CCOc1nc(NCc2ccc(S(C)(=O)=O)cc2)nc2ccc(-c3ccc(F)cc3)nc12 [Example 119, [4-Ethoxy-6-(4-fluoro-phenyl)-pyrido[3,2-d]pyrimidin-2-yl]-(4-methanesulfonyl-benzyl)-amine]
[1]
  EC50: < 0.1 µM
[2]
  CC50 at 3 days: < 5 µM

## NS(=O)(=O)c1ccc(CNc2nc(NC3CC3)c3nc(-c4ccc(C(=O)NC5CC5)cc4)ccc3n2)cc1 [Example 185, N-Cyclopropyl-4-[4-cyclopropylamino-2-(4-sulfamoyl-benzylamino)-pyrido[3,2-d]pyrimidin-6-yl]-benzamide]
[1]
  EC50: < 0.1 µM
[2]
  CC50 at 3 days: 5 to 25 µM

## Cn1cc(-c2ccc3nc(NCc4ccc(S(N)(=O)=O)cc4)nc(NCC(F)(F)F)c3n2)cn1 [Example 166, 4-{[6-(1-Methyl-1H-pyrazol-4-yl)-4-(2,2,2-trifluoro-ethylamino)-pyrido[3,2-d]pyrimidin-2-ylamino]-methyl}-benzenesulfonamide]
[1]
  EC50: < 0.1 µM
[2]
  CC50 at 3 days: > 25 µM

## CN(C)C(=O)c1ccc(CNc2nc(NCC(F)(F)F)c3nc(-c4ccc(F)cc4)ccc3n2)cc1 [Example 242, 4-{[6-(4-Fluoro-phenyl)-4-(2,2,2-trifluoro-ethylamino)-pyrido[3,2-d]pyrimidin-2-ylamino]-methyl}-N,N-dimethyl-benzamide]
[1]
  EC50: < 0.1 µM
[2]
  CC50 at 3 days: > 25 µM

## CCOc1nc(NCc2ccc(S(N)(=O)=O)cc2)nc2ccc(-c3ccc(NC(=O)NCCN4CCOCC4)cc3)nc12 [Example 123, 4-{[4-Ethoxy-6-(4-(3-(2-(morpholin-4-yl)ethyl)ureido)-phenyl)-pyrido[3,2-d]pyrimidin-2-ylamino]-methyl}-benzenesulfonamide]
[1]
  EC50: < 0.1 µM
[2]
  CC50 at 3 days: 5 to 25 µM

## Fc1ccc(-c2ccc3nc(NCc4nnco4)nc(NCC(F)(F)F)c3n2)cc1 [Example 247, 6-(4-Fluoro-phenyl)-N2-[1,3,4]oxadiazol-2-ylmethyl-N4-(2,2,2-trifluoro-ethyl)-pyrido[3,2-d]pyrimidine-2,4-diamine]
[1]
  EC50: < 0.1 µM
[2]
  CC50 at 3 days: 5 to 25 µM

## CCCc1nc(NCc2ccc(F)cc2)nc2ccc(-c3ccc(NC(=O)C(C)(C)N)cc3)nc12 [Example 295, 2-Amino-N-{4-[2-(4-fluoro-benzylamino)-4-propyl-pyrido[3,2-d]pyrimidin-6-yl]-phenyl}-2-methyl-propionamide]
[1]
  EC50: < 0.1 µM
[2]
  CC50 at 3 days: > 25 µM

## Fc1ccc(-c2ccc3nc(NCc4cccnc4)nc(NCC(F)(F)F)c3n2)cc1 [Example 244, 6-(4-Fluoro-phenyl)-N2-pyridin-3-ylmethyl-N4-(2,2,2-trifluoro-ethyl)-pyrido[3,2-d]pyrimidine-2,4-diamine]
[1]
  EC50: < 0.1 µM
[2]
  CC50 at 3 days: 5 to 25 µM

## CCOc1nc(NCc2ccc(F)cc2)nc2ccc(-c3cccc(S(N)(=O)=O)c3)nc12 [Example 85, 3-[4-Ethoxy-2-(4-fluoro-benzylamino)-pyrido[3,2-d]pyrimidin-6-yl]-benzenesulfonamide]
[1]
  EC50: < 0.1 µM
[2]
  CC50 at 3 days: 5 to 25 µM

## CCOc1nc(NCc2ccc(S(N)(=O)=O)cc2)nc2ccc(-c3ccc(N4CC(O)CC4=O)cc3)nc12 (centres unmarked) [Example 227, 4-({4-Ethoxy-6-[4-(4-hydroxy-2-oxo-pyrrolidin-1-yl)-phenyl]-pyrido[3,2-d]pyrimidin-2-ylamino}-methyl)-benzenesulfonamide]
[1]
  EC50: < 0.1 µM
[2]
  CC50 at 3 days: > 25 µM

## NS(=O)(=O)c1ccc(CNc2nc(NCC(F)(F)F)c3nc(-c4ccc(N5CCCC5=O)cc4)ccc3n2)cc1 [Example 191, 4-{[6-[4-(2-Oxo-pyrrolidin-1-yl)-phenyl]-4-(2,2,2-trifluoro-ethylamino)-pyrido[3,2-d]pyrimidin-2-ylamino]-methyl}-benzenesulfonamide]
[1]
  EC50: < 0.1 µM
[2]
  CC50 at 3 days: < 5 µM

## CC(C)N1CCN(S(=O)(=O)c2cc(-c3ccc4nc(NCc5ccc(S(N)(=O)=O)cc5)nc(NCC(F)(F)F)c4n3)ccc2Cl)CC1 [Example 196, 4-{[6-[4-Chloro-3-(4-isopropyl-piperazine-1-sulfonyl)-phenyl]-4-(2,2,2-trifluoro-ethylamino)-pyrido[3,2-d]pyrimidin-2-ylamino]-methyl}-benzenesulfonamide]
[1]
  EC50: < 0.1 µM
[2]
  CC50 at 3 days: < 5 µM

## Fc1ccc(CNc2nc(O[C@H]3CCOC3)c3nc(-c4ccc(F)cc4)ccc3n2)cc1 [Example 23, (4-Fluoro-benzyl)-[6-(4-fluoro-phenyl)-4-(tetrahydro-furan-3-yloxy)-pyrido[3,2-d]pyrimidin-2-yl]amine]
[1]
  EC50: < 0.1 µM
[2]
  CC50 at 3 days: 5 to 25 µM

## NS(=O)(=O)c1ccc(CNc2nc(NCC(F)(F)F)c3nc(-c4ccc(Cl)c(S(=O)(=O)N[C@@H]5CCNC5)c4)ccc3n2)cc1 [Example 197, 2-Chloro-N-pyrrolidin-3-yl-5-[2-(4-sulfamoyl-benzylamino)-4-(2,2,2-trifluoro-ethylamino)-pyrido[3,2-d]pyrimidin-6-yl]-benzenesulfonamide]
[1]
  EC50: < 0.1 µM
[2]
  CC50 at 3 days: < 5 µM

## N#CC1(NC(=O)c2ccc(-c3ccc4nc(NCc5ccc(F)cc5)nc(O[C@H]5CCOC5)c4n3)cc2)CC1 [Example 283, N-(1-Cyano-cyclopropyl)-4-[2-(4-fluoro-benzylamino)-4-(tetrahydro-furan-3-yloxy)-pyrido[3,2-d]pyrimidin-6-yl]-benzamide]
[1]
  EC50: < 0.1 µM
[2]
  CC50 at 3 days: < 5 µM

## NS(=O)(=O)c1ccc(CNc2nc(NCC(F)(F)F)c3nc(-c4ccc(Cl)c(S(=O)(=O)NCCN5CCCC5)c4)ccc3n2)cc1 [Example 195, 2-Chloro-N-(2-pyrrolidin-1-yl-ethyl)-5-[2-(4-sulfamoyl-benzylamino)-4-(2,2,2-trifluoro-ethylamino)-pyrido[3,2-d]pyrimidin-6-yl]-benzenesulfonamide]
[1]
  EC50: < 0.1 µM
[2]
  CC50 at 3 days: < 5 µM

## NS(=O)(=O)c1ccc(CNc2nc(NCC(F)(F)F)c3nc(-c4ccc(NC(=O)[C@H]5CCNC5)c(F)c4)ccc3n2)cc1 [Example 219, Pyrrolidine-3-carboxylic acid {2-fluoro-4-[2-(4-sulfamoyl-benzylamino)-4-(2,2,2-trifluoro-ethylamino)-pyrido[3,2-d]pyrimidin-6-yl]-phenyl}-amide]
[1]
  EC50: < 0.1 µM
[2]
  CC50 at 3 days: < 5 µM

## N#Cc1cccc(-c2ccc3nc(NCc4ccc(S(N)(=O)=O)cc4)nc(NCC(F)(F)F)c3n2)c1 [Example 175, 4-{[6-(3-Cyano-phenyl)-4-(2,2,2-trifluoro-ethylamino)-pyrido[3,2-d]pyrimidin-2-ylamino]-methyl}-benzenesulfonamide]
[1]
  EC50: < 0.1 µM
[2]
  CC50 at 3 days: > 25 µM

## COCCNc1nc(NC(C)C)c2nc(-c3ccc(F)cc3)ccc2n1 [Example 58, 6-(4-Fluoro-phenyl)-N4-isopropyl-N2-(2-methoxy-ethyl)-pyrido[3,2-d]pyrimidine-2,4-diamine]
[1]
  EC50: 0.25 to 2 µM
[2]
  CC50 at 3 days: < 5 µM

## NS(=O)(=O)c1ccc(CNc2nc(NC3CC3)c3nc(-c4ccc(NC(=O)C5(O)CC5)cc4)ccc3n2)cc1 [Example 181, 1-Hydroxy-cyclopropanecarboxylic acid {4-[4-cyclopropylamino-2-(4-sulfamoyl-benzylamino)-pyrido[3,2-d]pyrimidin-6-yl]-phenyl}-amide]
[1]
  EC50: < 0.1 µM
[2]
  CC50 at 3 days: < 5 µM
